In US20220289688A1, “RNA-TARGETING LIGANDS, COMPOSITIONS THEREOF, AND METHODS OF MAKING AND USING THE SAME” (THE UNIVERSITY OF NORTH CAROLINA AT CHAPEL HILL, priority 2019, published 2022):
Values joined by “and” are separate entries in the source; they are usually repeats but may differ in a detail not shown here. Identical values can stand only once. “Also recorded” adds a separate entry of the source. Like-named read-outs stand apart in the source and are kept apart here. Blank lines part the entries; values can stand above or below the compound they belong to.

Columns and labels:
TPP riboswitch RNA = assay: Isothermal titration calorimetry (ITC), ligand titrated into RNA; assay type: binding; conditions: for Kd / Binding affinity relative to a named comparator compound / Kd (μM): ITC; for Effect of modification on RNA binding affinity (FIG. 5): linked fragments 17 and 31, dissociation constants by ITC; for Binding affinity relative to a named comparator compound: comparator named in value
[1] = Solubility at concentrations required for ITC; assay type: physicochemical; conditions: ITC buffer
Procedure: (§1) ITC experiments were performed using a Microcal PEAQ-ITC automated instrument (Malvern Analytical) under RNase-free conditions^41. In vitro transcribed RNA was exchanged into folding buffer containing 100 mM CHES, pH 8.0, 200 mM potassium acetate, and 3 mM MgCl2 using centrifugal concentration (Amicon Ultra centrifugal filters, 10K MWCO, Millipore-Sigma). Ligands were dissolved into the same buffer (to minimize heat of mixing upon addition of ligand to RNA) at a concentration 10-20 times the desired experimental concentration of RNA. RNA concentration was quantified (Nanodrop UV-VIS spectrometer; ThermoFisher Scientific), diluted to 1-10 times the expected […] in buffer, and the diluted RNA was re-quantified to confirm the final experimental RNA concentration. The RNA, diluted in folding buffer, was heated at 65° C. for 5 minutes, placed on ice for 5 minutes, and allowed to fold at 37° C. for 15 minutes. if needed, the primary binding ligand (for example, 2) was pre-bound to the RNA by adding 0.1 volume at 10 times the desired final concentration of the bound ligand, followed by incubation at room temperature for 10 minutes.

[2] = system: TPP riboswitch region of the screening construct; assay: SHAPE second-fragment screen of RNA construct pre-bound to primary fragment; assay type: binding; conditions: RNA pre-bound to 2 or S12; fragment 1 mM
Procedure: For the first-fragment-ligand screen, 5 pmol of RNA per well were diluted to […] in RNase-free water on a 4° C. cooling block. The plate was heated at 95° C. for 2 minutes, immediately followed by snap cooling at 4° C. for 5 minutes. To each well was added 19.6 μL of 2× folding buffer (final concentrations 50 mM HEPES pH 8.0, 200 mM potassium acetate, and 10 mM MgCl2), and plates were incubated at 37° C. for 30 minutes. […] To combine the target RNA with fragment, 24.3 μL of RNA solution or RNA plus primary binding fragment were added to wells containing 2.7 μL of 10× screening fragments (in DMSO to yield a final fragment concentration of 1 mM). Solutions were mixed thoroughly by pipetting and incubated for 10 minutes at 37° C. […]
Once screening of test fragments is complete, statistical tests are carried out to identify differences in modification rates of a given nucleotide. […] That is, if m1 modifications of a tested nucleotide were counted among n1 reads in sample 1 and m2 modifications were counted among n2 reads in sample 2, the tested null hypothesis predicts that among all the counted modifications (m1+m2), the proportion of modifications in sample 1 will be p1=n1/(n1+n2). […]

2-TPP RNA complex = assay: ITC with primary binding fragment pre-bound to the RNA; conditions: for Binding cooperativity with 2: ITC in presence and absence of pre-bound 2; for Kd: ITC
Procedure: as §1
Each ITC experiment involved two runs: one in which the ligand was titrated into RNA (the experimental trace) and one in which the same ligand was titrated into buffer (the control trace). ITC experiments were performed using the following parameters: 25° C. cell temperature, 8 μCal/sec reference power, 750 RPM stirring speed, high feedback mode, 0.2 μL initial injection, followed by 19 injections of 2 μL. Each injection required 4 seconds to complete, and there was a 180-second spacing between injections.
ITC data was analyzed using MicroCal PEAQ-ITC Analysis Software (Malvern Analytical). First, the baseline for each injection peak was manually adjusted to resolve any incorrectly selected injection endpoints. Second, the control trace was subtracted from the experimental trace by point-to-point subtraction. Third, a least-squares regression line was fit to the data using the Levenberg-Marquardt algorithm. In the case of weakly binding ligands (>500 μM), N was manually set to 1.0 to enable fitting of low c-value curves.

[3] = primary-screen hits, Table 1, value ± error, read-out: Kd
[4] = fragment 2 analogs, pendant groups, Table 2B, read-out: Kd
[5] = no ligand pre-bound, Table 6, read-out: Kd (mM) No ligand bound
[6] = primary fragment pre-bound to TPP riboswitch RNA, Table 6, read-out: Kd (mM) 5 pre-bound
[7] = fragment 5 analogs, pendant groups, Table 4, read-out: Kd
[8] = fragment 5 analogs, pendant groups, Table 4

SMILES: Nc1ccc2nccnc2c1 [Compound 2]
Kd (TPP riboswitch RNA; fragment 2 analogs, quinoxaline core modifications, Table 2A, read-out: Kd): 25 µM | Kd (TPP riboswitch RNA; [3]): 25 ± 6 µM | Kd (TPP riboswitch RNA; read-out: Kd): 25 µM

SMILES: O=C1CC(C(F)(F)F)=NN1 [Compound 7]
Solubility at concentrations required for ITC [1]: insoluble

SMILES: Cc1ncc(C[n+]2csc(CCOP(=O)([O-])OP(=O)(O)O)c2C)c(N)n1 [Compound 9, thiamine pyrophosphate, reference compound]
Kd (TPP riboswitch RNA; [3]): 0.029 ± 0.002 µM

SMILES: Cc1cc(N2CCNCC2)c2ccccc2n1 [Compound 28]
Solubility at concentrations required for ITC [1]: insoluble

SMILES: O=C(O)c1csc2ccc(Cl)cc12 [Compound 29]
SHAPE result of second-round screen [2]: caused changes in other areas of the RNA consistent with nonspecific interactions

SMILES: c1cc(N2CCNCC2)ccn1 [Compound 31]
Kd (TPP riboswitch RNA; fragment alone, read-out: Kd): 10000 µM and ≥ 10000 µM | Kd (TPP riboswitch RNA; [5]): > 10000 µM | Binding cooperativity with 2 (2-TPP RNA complex): clear, but modest, binding cooperativity with 2 | Kd (2-TPP RNA complex; 2 pre-bound to the TPP riboswitch RNA, read-out: Kd): ~3 mM | Kd (2-TPP RNA complex; [6]): 3 mM

SMILES: Cc1cnccc1N1CCNCC1 [Compound 32]
Kd (TPP riboswitch RNA; [5]): > 10000 µM | Binding cooperativity with 2 (2-TPP RNA complex): clear, but modest, binding cooperativity with 2 | Kd (2-TPP RNA complex; [6]): 4 mM

SMILES: Nc1cnccc1N1CCNCC1 [Compound 34]
Kd (TPP riboswitch RNA; [5]): > 10000 µM

SMILES: COC(=O)c1ccc(Br)cc1 [compound 85]
Kd (TPP riboswitch RNA; [7]): 440 µM

SMILES: COC(=O)c1ccc([N+](=O)[O-])cc1 [compound 86]
Kd (TPP riboswitch RNA; [7]): 390 µM

SMILES: COC(=O)c1ccc(N)cc1 [compound 88]
Kd (TPP riboswitch RNA; [7]): 1100 µM

SMILES: COC(=O)c1ccc(C(F)(F)F)cc1 [compound 89]
Kd (μM) (TPP riboswitch RNA; [8]): no binding

SMILES: COC(=O)c1ccc(Cl)c(Cl)c1 [compound 811]
Kd (TPP riboswitch RNA; [7]): 820 µM

SMILES: COC(=O)c1ccc(Cl)cc1Cl [compound 812]
Binding affinity relative to a named comparator compound (TPP riboswitch RNA): approximately threefold higher affinity for the TPP riboswitch than did fragment 5 | Kd (TPP riboswitch RNA; [7]): 93 µM

SMILES: CCOC(=O)c1ccc(Cl)cc1 [compound 813]
Kd (TPP riboswitch RNA; [7]): 600 µM

SMILES: NC(=O)c1ccc(Cl)cc1 [compound 815]
Kd (TPP riboswitch RNA; [7]): 1800 µM

SMILES: NS(=O)(=O)c1ccc(Cl)cc1 [compound 816]
Kd (TPP riboswitch RNA; [7]): 1300 µM

SMILES: CCS(=O)(=O)c1ccc(Cl)cc1 [compound 817]
Kd (μM) (TPP riboswitch RNA; [8]): no binding

SMILES: CN(C)C(=O)c1ccc(Cl)cc1 [compound 818]
Kd (μM) (TPP riboswitch RNA; [8]): no binding

The next lines start with results.

Kd (TPP riboswitch RNA; [3]): 11 ± 0.2 µM
SMILES: C#Cc1ccc2nccnc2c1 [Compound 1]

Kd (TPP riboswitch RNA; [3]): 95 ± 3 µM
SMILES: COc1ccc2nsnc2c1 [Compound 3]

Kd (TPP riboswitch RNA; [3]): 220 ± 10 µM
SMILES: NCc1ccc(-c2csnn2)cc1 [Compound 4]

Kd (TPP riboswitch RNA; [3]): 265 ± 80 µM
SMILES: COC(=O)c1ccc(Cl)nc1 [Compound 5]

Kd (TPP riboswitch RNA; fragment 5 analogs, pyridine core modifications, Table 3, read-out: Kd): 266 µM | Kd (TPP riboswitch RNA; [3]): 650 ± 100 µM
SMILES: c1cc2[nH]cnc2cn1 [Compound 6]

Solubility at concentrations required for ITC [1]: insoluble
SMILES: O=C(O)c1cncc(-c2cccs2)c1 [Compound 8]

Kd (TPP riboswitch RNA; [4]): 18 µM
SMILES: OCc1ccc2nccnc2c1 [Compound 15]

Kd (TPP riboswitch RNA; [4]): 35 µM
SMILES: O=Cc1ccc2nccnc2c1 [Compound 18]

Kd (TPP riboswitch RNA; [4]): 58 µM | Kd (TPP riboswitch RNA; read-out: Kd): 5 µM
SMILES: COC(=O)c1ccc2nccnc2c1 [Compound 19]

Kd (TPP riboswitch RNA; [4]): 33 µM
SMILES: Cc1ccc2nccnc2c1 [Compound 20]

Kd (TPP riboswitch RNA; [4]): 75 µM
SMILES: Nc1cccc2nccnc12 [Compound 21]

Kd (TPP riboswitch RNA; [4]): 220 µM
SMILES: Fc1cccc2nccnc12 [Compound 23]

Kd (TPP riboswitch RNA; [4]): 379 µM
SMILES: Nc1cnc2ccccc2n1 [Compound 24]

Kd (TPP riboswitch RNA; [4]): 600 µM
SMILES: NC(=O)c1cnc2ccccc2n1 [Compound 25]

Kd (TPP riboswitch RNA; [5]): > 10000 µM
SMILES: NCCCN1CCN(c2ccncc2)CC1 [Compound 33]

Effect of modification on RNA binding affinity (FIG. 5) (TPP riboswitch RNA): negative modification
SMILES: O=C(CCC(=O)Nc1ccc2nccnc2c1)NO [Compound 35]

Effect of modification on RNA binding affinity (FIG. 5) (TPP riboswitch RNA): increase RNA binding affinity
SMILES: O=C(CCNc1ccc2nccnc2c1)NO [Compound 36]
Binding affinity relative to a named comparator compound (TPP riboswitch RNA): fivefold higher binding affinity than the amide-linked version; also recorded: affinity similar to that of the parent fragment 17

Kd (TPP riboswitch RNA; read-out: Kd (affinity)): 0.625 µM | Effect of modification on RNA binding affinity (FIG. 5) (TPP riboswitch RNA): increase RNA binding affinity
SMILES: c1cc(N2CCCCC2)c(NCc2ccc3nccnc3c2)cn1 [Compound 37]

Binding affinity relative to a named comparator compound (TPP riboswitch RNA): reduced affinity relative to compound 37 | Effect of modification on RNA binding affinity (FIG. 5) (TPP riboswitch RNA): neutral modifications
SMILES: CN(C)CCNCc1ccc2nccnc2c1 [Compound 38]

Binding affinity relative to a named comparator compound (TPP riboswitch RNA): reduces affinity relative to compound 37 | Effect of modification on RNA binding affinity (FIG. 5) (TPP riboswitch RNA): negative modification
SMILES: c1cc(N2CCNCC2)c(CNCc2ccc3nccnc3c2)cn1 [Compound 39]

Binding affinity relative to a named comparator compound (TPP riboswitch RNA): reduces affinity relative to compound 37 | Effect of modification on RNA binding affinity (FIG. 5) (TPP riboswitch RNA): negative modification
SMILES: c1cnc2cc(CNc3cncc(N4CCNCC4)c3)ccc2n1 [Compound 40]

Kd (TPP riboswitch RNA; [7]): 1800 µM
SMILES: CCOc1ccc(C(=O)OC)cc1 [compound 87]

Kd (μM) (TPP riboswitch RNA; [8]): no binding
SMILES: COC(=O)c1ccc(Oc2ccccc2)cc1 [compound 810]

Kd (TPP riboswitch RNA; [7]): 1300 µM
SMILES: OCc1ccc(Cl)cc1 [compound 814]
